Holding throughout (experiment): cAMP accumulation
What all share (format): cell-based
(Changes in cAMP serve as a functional read-out for many G protein-coupled receptors.)

For one assay, the target named is T1, hCTR N288A (Homo sapiens, UniProt P30988, N288A).
T1 construct: expressed in transfected cells
T1 sequence (P30988 25-474 N288A): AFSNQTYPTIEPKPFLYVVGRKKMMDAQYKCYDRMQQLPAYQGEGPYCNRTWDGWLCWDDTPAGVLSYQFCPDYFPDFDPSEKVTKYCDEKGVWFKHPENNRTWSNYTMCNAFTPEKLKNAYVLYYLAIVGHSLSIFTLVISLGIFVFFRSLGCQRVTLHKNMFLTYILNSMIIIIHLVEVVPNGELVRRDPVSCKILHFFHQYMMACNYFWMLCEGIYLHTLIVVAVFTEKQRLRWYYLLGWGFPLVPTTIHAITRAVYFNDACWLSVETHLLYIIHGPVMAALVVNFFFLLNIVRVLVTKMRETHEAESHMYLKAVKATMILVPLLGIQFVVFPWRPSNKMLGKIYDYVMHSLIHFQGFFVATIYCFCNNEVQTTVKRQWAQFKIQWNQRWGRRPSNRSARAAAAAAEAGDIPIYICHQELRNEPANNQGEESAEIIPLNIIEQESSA
Conditions: cAMP maximal response, mean ± S.E.M., SEM. In short, it runs like this: (§1)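 Cells expressing the receptor mutant were seeded overnight, then stimulated with increasing ligand concentrations for 30 min in the presence of IBMX. After ethanol extraction and drying at room temperature, cAMP was measured and normalized to the 100 μM forskolin response. EC50 and Emax came from 3-parameter logistic fits.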

For a further assay, the target named is T2, hCTR L291A (Homo sapiens, UniProt P30988, L291A).
T2 construct: expressed in transfected cells
T2 sequence (P30988 25-474 L291A): T1 sequence (P30988 25-474 N288A) with A264N, L267A
Conditions: cAMP maximal response, mean ± S.E.M., SEM. In a few lines: as §1

The target of the next assay is T3, hCTR D287A (Homo sapiens, UniProt P30988, D287A).
T3 construct: c-Myc (N); expressed in transfected cells
T3 sequence (P30988 25-474 D287A): T1 sequence (P30988 25-474 N288A) with D263A, A264N
Conditions: cAMP maximal response, mean ± S.E.M., SEM. In short, it runs like this:
as §1

The next assay concerns the target T4, hCTR Y284A (Homo sapiens, UniProt P30988, Y284A).
T4 construct: expressed in transfected cells
T4 sequence (P30988 25-474 Y284A): T1 sequence (P30988 25-474 N288A) with Y260A, A264N
Particulars: cAMP maximal response, mean ± S.E.M., SEM. In a few lines:
as §1

Another assay concerns the target T5, hCTR R362A (Homo sapiens, UniProt P30988, R362A).
T5 construct: expressed in transfected cells
T5 sequence (P30988 25-474 R362A): T1 sequence (P30988 25-474 N288A) with A264N, R338A
Conditions: read-out: Emax (% WT); SEM. In a few lines: as §1

Positions count from the first letter of the chain named.

One may read the Emax as the greatest response seen or fitted, relative to the assay's reference. Turning to `CC(C)C[C@H](NC(=O)[C@H](CCCCN)NC(=O)CNC(=O)[C@H](CC(C)C)NC(=O)[C@@H](NC(=O)[C@@H]1CSSC[C@H](N)C(=O)N[C@@H](CO)C(=O)N[C@@H](CC(N)=O)C(=O)N[C@@H](CC(C)C)C(=O)N[C@@H](CO)C(=O)N[C@@H]([C@@H](C)O)C(=O)N1)C(C)C)C(=O)N[C@@H](CO)C(=O)N[C@@H](CCC(N)=O)C(=O)N[C@@H](CCC(=O)O)C(=O)N[C@@H](CC(C)C)C(=O)N[C@@H](Cc1c[nH]cn1)C(=O)N[C@@H](CCCCN)C(=O)N[C@@H](CC(C)C)C(=O)N[C@@H](CCC(N)=O)C(=O)N[C@H](C(=O)N[C@@H](Cc1ccc(O)cc1)C(=O)N1CCC[C@H]1C(=O)N[C@@H](CCCNC(=N)N)C(=O)N[C@H](C(=O)N[C@@H](CC(N)=O)C(=O)N[C@H](C(=O)NCC(=O)N[C@@H](CO)C(=O)NCC(=O)N[C@H](C(=O)N1CCC[C@H]1C(N)=O)[C@@H](C)O)[C@@H](C)O)[C@@H](C)O)[C@@H](C)O` [sCT], the Emax is 69 ± 5% at hCTR N288A; 108 ± 4% at hCTR L291A; 119 ± 7% on hCTR D287A; 111 ± 11% on hCTR Y284A; 95 ± 4% on hCTR R362A.

Source of the values: PMC5908784, “Extracellular loops 2 and 3 of the calcitonin receptor selectively modify agonist binding and efficacy” (Biochemical Pharmacology, 2018).
